From article PMC3908613 (Bioscience Reports, 2014)

Experiments:
BMDC [1] = assay: FITC-dextran uptake (macropinocytosis) by BMDC; type: cell-based, C57BL/6 mice; conditions: LPS 50 ng/ml, FITC-dextran 1 mg/ml, increasing concentrations
Experimental: (§1) DCs were generated from the bone marrow or the spleen of C57BL/6 mice as previously described. Briefly, bone marrow cells were cultured for 7 days at 37°C, 5% (v/v) CO2 in complete RPMI medium supplemented with 10 ng/ml recombinant granulocyte–macrophage colony-stimulating factor (GM-CSF; Peprotech). Spleen cells were cultured for 14 days at 37°C, 5% CO2 in complete RPMI containing 10 ng/ml GM-CSF and 1 ng/ml TGFβ (transforming growth factor-β; R&D Systems). NIH3T3 cells (European Cell Culture Collection) were cultured in DMEM (Dulbecco's modified Eagle's medium) supplemented with glutamine, penicillin, streptomycin and 10% (v/v) calf serum (Invitrogen).
FITC-dextran uptake was measured as described. […] In some experiments, cells were pre-treated with 1 μM Akt-i (Merck) for 30 min. Cells were left unstimulated or were stimulated with 50 ng/ml LPS for 20 min at 37°C followed by the addition of 1 mg/ml FITC dextran (Invitrogen) for 10 min at 37°C. Cells were washed four times at 4°C in PBS supplemented with 2% (v/v) FCS (foetal calf serum) and then stained with APC (allophycocyanin)-labelled anti-CD11c antibody (BD biosciences). FITC dextran uptake was measured on an FACS Calibur (BD biosciences).

[2] = system: panel of more than 200 kinases; parameters: method as in PMID 22056746; conditions: cited from earlier work
DC = assay: Actin cytoskeleton organisation in DC (confocal microscopy); type: cell-based, C57BL/6 mice; conditions: 4 μM D1870 or 2 μM BIX, 1h30 at 37°C
Experimental: 2 μMBIXfor1h30at37◦ C. Cells were ﬁxed in 4 % (v/v) paraformalde-hyde for 15 min, permeabilized with 0.1 % Triton for 5 min and stained with phalloidin-Alexa 555 (Invitrogen) and anti-vinculin antibody (Sigma) followed by goat anti-mouse Alexa 488 antibody (invitrogen). Cells were analysed on a Zeiss700 confocal microscope. V inculin (green) and phal-loidin (red). Error bar 10 μm. Images are representative of three inde- […]
© 2014 The Author(s) This is an Open Access ar ticle distributed under the terms of the Creative Commons Attribution Licence (CC-BY) (http://creativecommons.org/licenses/by/3.0/)c which permits unrestricted use, distribution and reproduction in any medium, provided the original work is properly cited.
(1 picture or pasted object on this page, not shown here)

PLK1 = biological target: T1, PLK1 (Mus musculus, UniProt Q07832); assay: Desthiobiotin-ATP probe capture on streptavidin beads, Western blot; type: binding, C57BL/6 mice; conditions: 10 μM inhibitor, DC lysate
T1 construct: endogenous in cells; host or cells: mouse spleen-derived dendritic cells (SDC), lysate
Experimental: (§2) SDC were cultured for at least 14 days in RPMI (without arginine and lysine, custom-made by Biosera) containing 10% dialysed FCS (Hyclone) supplemented with 84 mg/l of L-arginine (Sigma) and 40 mg/l L-lysine (Sigma) for the ‘light’ medium or 84 mg/l of L-arginine ^13C6 or ^13C10 and 40 mg/l L-lysine ^13C6 (Cambridge Isotope Laboratory) for the ‘heavy’ medium. Equal numbers (2×10^7) of ‘light’ or ‘heavy’ labelled SDCs were incubated in RPMI containing 0.5% FCS for 3 h in 15 cm dishes. The cells were lysed in the lysis buffer provided in the kit (Pierce). […] Labelling with the desthiobiotin ATP probe, and precipitation with streptavidin beads were performed according to the manufacturer's instructions (Pierce kinase enrichment kit or ActivX™). Equal amount of streptavidin precipitates were separated by electrophoresis as described above and probed with antibodies against Rsk2, Lok (Bethyl), Slk (Bethyl), PLK1 (Calbiochem), p38, Erk2 and Mst1 (from Cell Signaling).

p38 = assay: as above; type: binding, C57BL/6 mice; conditions: 10 μM inhibitor, DC lysate
Experimental: as §2, with “'light'” for “‘light’”, “L-arginine ^13C6” left out, “L-lysine ^13C6” left out, “'heavy'” for “‘heavy’”, “ActivXTM).” for “ActivX™). Equal amount of streptavidin precipitates were separated by electrophoresis as described above and probed with antibodies against Rsk2, Lok (Bethyl), Slk (Bethyl), PLK1 (Calbiochem), p38, Erk2 and Mst1 (from Cell Signaling).”

Erk1/2 = biological target: T2, Erk1/2 (Mus musculus, UniProt P63085); assay: as above; type: binding, C57BL/6 mice; conditions: 10 μM inhibitor, DC lysate
T2 construct: recovered on streptavidin beads following desthiobiotin-ATP labelling of DC lysates including Rsk2, Erk1/2 and p38; endogenous in cells; host or cells: mouse spleen-derived dendritic cells (SDC), lysate
Experimental: as §2, with “'light'” for “‘light’”, “L-arginine ^13C6” left out, “L-lysine ^13C6” left out, “'heavy'” for “‘heavy’”, “ActivXTM).” for “ActivX™). Equal amount of streptavidin precipitates were separated by electrophoresis as described above and probed with antibodies against Rsk2, Lok (Bethyl), Slk (Bethyl), PLK1 (Calbiochem), p38, Erk2 and Mst1 (from Cell Signaling).”

BMDC [3] = assay: Immunoblot of phosphorylated signalling proteins in stimulated BMDC; type: cell-based, C57BL/6 mice; conditions: 30 min
Experimental: BMDC (1.5×10^6 cells) were incubated in 6-well plates in RPMI supplemented with 0.3% FCS for 5 h at 37°C. […] NIH3T3 cells (2×10^4) were plated in 6-well plates for 48 h at 37°C. The cells were deprived of serum for 8 h in DMEM supplemented with 2 mg/ml BSA (Sigma) and then stimulated with 100 ng/ml EGF (epidermal growth factor; Peprotech) for 5 min at 37°C.
Cells were washed in cold PBS, lysed on ice for 10 min in lysis buffer (1% Triton X-100 containing 50 mM Tris–HCl (pH 7.5), 150 mM NaCl, 1 mM EGTA, 1 mM EDTA, 10 mM NaF, 1 mM sodium orthovanadate and 5 mM sodium pyrophosphate and protease inhibitors (Roche)) and centrifuged for 10 min at 20000 g at 4°C.
BMDC (5×10^6 cells) were stimulated as described above. Lysates were pre-cleared with protein G Sepharose beads (Roche) for 30 min at 4°C. Paxillin was immunoprecipitated with 2 μg of anti-paxillin (Millipore) or with anti-IgG antibodies (Santa Cruz Biotechnology) for 1 h at 4°C and then incubated with 15 μl protein G Sepharose beads for 1 h at 4°C. Beads were washed four times with lysis buffer and paxillin was eluted with NuPage sample buffer (Invitrogen). The immunoprecipitated proteins were separated by electrophoresis on a 10% (w/v) NuPage gel and transferred onto a nitrocellulose membrane. The membrane was probed with anti-phospho Ser250-paxilin (kind gift of Luc Sabourin, McMaster University, Canada) or anti-paxillin antibodies.

RSK = system: RSK; parameters: method as in PMID 22056746; conditions: read-out: in vitro IC50 RSK; cited from earlier work
BMDC [4] = assay: Cytokine production by LPS-stimulated BMDC (ELISA); type: cell-based, C57BL/6 mice; conditions: LPS 50 ng/ml, 18 h; for production of TNFα, IL6 and IL10: in the presence of both PD184352 (2 μM) and BIRB0796 (0.1 μM)
Experimental: as §1, with “granulocyte-macrophage” for “granulocyte–macrophage”, “(Invitrogen). […] The amounts of TNFα (tumour necrosis factor α), IL6 (interleukin 6) and IL10 in the supernatant were measured using ELISA kits specific for each cytokine (TNFα, IL6; Peprotech, IL10; R&D Systems).” for “(Invitrogen).”

[5] = increasing concentrations of inhibitor

T1 sequence (Q07832 whole entry): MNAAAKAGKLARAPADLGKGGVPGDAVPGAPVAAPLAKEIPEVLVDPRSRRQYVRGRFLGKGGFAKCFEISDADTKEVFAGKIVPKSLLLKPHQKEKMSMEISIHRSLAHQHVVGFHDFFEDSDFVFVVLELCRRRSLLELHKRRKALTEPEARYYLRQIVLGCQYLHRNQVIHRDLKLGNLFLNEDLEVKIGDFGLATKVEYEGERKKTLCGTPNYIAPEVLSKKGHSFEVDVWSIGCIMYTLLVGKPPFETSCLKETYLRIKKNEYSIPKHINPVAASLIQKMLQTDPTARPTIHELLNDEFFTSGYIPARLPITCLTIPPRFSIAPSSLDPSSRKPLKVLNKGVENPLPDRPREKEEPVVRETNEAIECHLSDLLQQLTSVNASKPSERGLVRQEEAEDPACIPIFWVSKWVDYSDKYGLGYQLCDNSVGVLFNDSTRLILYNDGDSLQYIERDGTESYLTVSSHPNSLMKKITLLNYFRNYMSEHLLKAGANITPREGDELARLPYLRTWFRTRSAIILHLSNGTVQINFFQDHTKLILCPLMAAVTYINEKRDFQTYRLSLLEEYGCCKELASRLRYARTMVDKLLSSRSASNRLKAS
T2 sequence (P63085 2-358): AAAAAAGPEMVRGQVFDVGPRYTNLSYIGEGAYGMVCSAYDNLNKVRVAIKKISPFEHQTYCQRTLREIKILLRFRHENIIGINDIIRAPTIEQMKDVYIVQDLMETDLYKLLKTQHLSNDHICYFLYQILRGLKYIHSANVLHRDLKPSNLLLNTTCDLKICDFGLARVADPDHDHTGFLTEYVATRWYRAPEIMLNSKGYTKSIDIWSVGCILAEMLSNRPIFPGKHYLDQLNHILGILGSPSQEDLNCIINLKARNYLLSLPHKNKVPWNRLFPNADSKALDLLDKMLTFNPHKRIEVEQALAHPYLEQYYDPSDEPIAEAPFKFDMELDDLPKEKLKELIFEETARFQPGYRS

SMILES | Block of TLR stimulated macropinocytosis (BMDC [1]) | Higher levels of BIX at which a few other kinases were affected [2] | morphological changes in resting DC (cell spreading, focal adhesion, loss of podosomes) (DC) | Recovery of PLK1 on streptavidin beads (PLK1) | capture of p38 on streptavidin beads (p38) | capture of Erk1/2 on streptavidin beads (Erk1/2) | Erk1/2, p38 or JNK1/2 phosphorylation (BMDC [3]; LPS 50 ng/ml) | GSK3α/β phosphorylation (BMDC [3]; LPS 50 ng/ml) | PKB phosphorylation at Ser473 and Thr308 (BMDC [3]; LPS 50 ng/ml) | Phosphorylation of MSK1 and MK2 (BMDC [3]; LPS 50 ng/ml) | phosphorylation of IκBα (BMDC [3]; LPS 50 ng/ml) | phosphorylation of paxillin on Ser250 (BMDC [3]; LPS, paxillin immunoprecipitated) | IC50 (RSK) [nM] | IL6 secretion (BMDC [4]; [5]) | IL10 secretion (BMDC [4]; [5]) | TNFα production (BMDC [4]; [5]) | production of TNFα, IL6 and IL10 (BMDC [4])
C[C@@H]1CCNC(=O)c2cc3ccc(C(=O)Nc4nc5ccccc5n4CCCN(C)C)cc3n21 [BIX, BIX02565] | ~ 20% | ~ 20 fold | not observed | not affected | not Erk1/2 or p38, was blocked | not Erk1/2 or p38, was blocked | Neither inhibitor had any effect | blocked | increased | not affected | neither D1870 nor BIX affected | little effect | 1 to 2 | only partially blocked | only partially blocked | partially blocked | –
O=C(NOCC1CC1)c1ccc(F)c(F)c1Nc1ccc(I)cc1Cl [PD184352] | – | – | – | – | – | – | – | – | – | – | – | – | – | – | – | – | blocked
Cc1ccc(-n2nc(C(C)(C)C)cc2NC(=O)Nc2ccc(OCCN3CCOCC3)c3ccccc23)cc1 [BIRB0796] | – | – | – | – | – | – | – | – | – | – | – | – | – | – | – | – | blocked
